# Experimental data as given in PubChem BioAssay AID1259411 (Chemical Carcinogenesis Research Information System (CCRIS), 2018).
# Active and inactive are the calls of the source. The rule behind the calls is not given here.
# Test system: rodent carcinogenicity bioassays, tumor incidence
# Assay: CCRIS carcinogenicity studies
# How it was run: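 NCI-built, expert-reviewed records of carcinogenicity and related test outcomes (mutagenicity, tumor promotion/inhibition) compiled from published and report sources, historical span 1985-2011, not updated.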
smiles,measurement,setting,value
O=S(=O)(c1ccc(Cl)cc1)c1ccc(Cl)cc1,carcinogen call,"Species: MOUSE, Strain/Sex: B6C3F1/FEMALE, Route: ORAL, Dose: 0, 30, 100, 300 PPM IN DIET FOR 104-105 WK (STUDY DURATION: 104-105 WK), Dose: 0, 30, 100, 300 PPM IN DIET FOR 104-105 WK (STUDY DURATION: 104-105 WK)",inactive; negative
same,carcinogen call,"Species: MOUSE, Strain/Sex: B6C3F1/MALE, Route: ORAL, Dose: 0, 30, 100, 300 PPM IN DIET FOR 104-105 WK (STUDY DURATION: 104-105 WK), Dose: 0, 30, 100, 300 PPM IN DIET FOR 104-105 WK (STUDY DURATION: 104-105 WK)",inactive; negative
same,carcinogen call,"Species: RAT, Strain/Sex: F344/FEMALE, Route: ORAL, Dose: 0, 30, 100, 300 PPM IN DIET FOR 104-105 WK (STUDY DURATION: 104-105 WK), Dose: 0, 30, 100, 300 PPM IN DIET FOR 104-105 WK (STUDY DURATION: 104-105 WK)",inactive; negative
same,carcinogen call,"Species: RAT, Strain/Sex: F344/MALE, Route: ORAL, Dose: 0, 10, 30, 100, 300 PPM IN DIET FOR 104-105 WK (STUDY DURATION: 104-105 WK), Dose: 0, 10, 30, 100, 300 PPM IN DIET FOR 104-105 WK (STUDY DURATION: 104-105 WK)",inactive; negative
C=CCc1ccc(OC)cc1,carcinogen call,"Species: MOUSE, Strain/Sex: B6C3F1/MALE, Route: INTRAPERITONEAL, Dose: 0, 4.75 UMOL TOTAL DOSE, D 1,8,15 AND 22 AFTER BIRTH, AUTOPSIED AT 13-18 MO, Dose: 0, 4.75 UMOL TOTAL DOSE, D 1,8,15 AND 22 AFTER BIRTH, AUTOPSIED AT 13-18 MO, Tumor Site: Type of Lesion: LIVER: HEPATOMA",active; positive
same,carcinogen call,"Species: MOUSE, Strain/Sex: C3H/MALE, Route: INTRAPERITONEAL, Dose: 0, 9.45 UMOL TOTAL DOSE, D 1,8,15 AND 22 AFTER BIRTH, AUTOPSIED AT 12 MO, Dose: 0, 9.45 UMOL TOTAL DOSE, D 1,8,15 AND 22 AFTER BIRTH, AUTOPSIED AT 12 MO, Tumor Site: Type of Lesion: LIVER: HEPATOMA",active; positive
same,carcinogen call,"Species: MOUSE, Strain/Sex: CD-1/FEMALE, Route: ORAL, Dose: 0, 0.23, 0.46% IN DIET, FOR 12 MO, Dose: 0, 0.23, 0.46% IN DIET, FOR 12 MO, Tumor Site: Type of Lesion: LIVER: HEPATOMA",active; positive
same,carcinogen call,"Species: MOUSE, Strain/Sex: CD-1/MALE,FEMALE, Route: GAVAGE, Dose: 0, 25 UMOL/G TOTAL DOSE, 2/WK FOR 5 WK BEGINNING ON D 4 AFTER BIRTH, AUTOPSIED AT 11-14 MO, Dose: 0, 25 UMOL/G TOTAL DOSE, 2/WK FOR 5 WK BEGINNING ON D 4 AFTER BIRTH, AUTOPSIED AT 11-14 MO, Tumor Site: Type of Lesion: LIVER: HEPATOMA",active; positive
same,carcinogen call,"Species: MOUSE, Strain/Sex: CD-1/MALE, Route: SUBCUTANEOUS, Dose: 0, 0.17, 0.35 UMOL IN 0.025 ML TRIOCTANOIN WITHIN 24 HR AFTER BIRTH THEN 0, 0.47, 0.69 UMOL IN 0.05 ML TRIOCTANOIN ON D, Dose: 0, 0.17, 0.35 UMOL IN 0.025 ML TRIOCTANOIN WITHIN 24 HR AFTER BIRTH THEN 0, 0.47, 0.69 UMOL IN 0.05 ML TRIOCTANOIN ON D, Tumor Site: Type of Lesion: LIVER: HEPATOCELLULAR CARCINOMA",active; positive
same,carcinogen call,"Species: MOUSE, Strain/Sex: CD-1/MALE, Route: SUBCUTANEOUS, Dose: 0, 4.43, 5.19 UMOL TOTAL DOSE, D 1,8,15 AND 22 AFTER BIRTH, Dose: 0, 4.43, 5.19 UMOL TOTAL DOSE, D 1,8,15 AND 22 AFTER BIRTH, Tumor Site: Type of Lesion: LIVER: HEPATOCELLULAR CARCINOMA",active; positive
same,carcinogen call,"Species: Mouse, Strain/Sex: ICR/Female (30 324 day survivors/Group), Route: Intraperitoneal injection, Dose: 150 mg/kg bw a wk for 17 wks, study duration 537 days, Tumor Site: Type of Lesion: Liver: Hepatocellular adenoma and carcinoma",active; positive (80% incidence). apparent lack of concurrent controls.
NC(=O)N(CCO)N=O,carcinogen call,"Species: HAMSTER, Strain/Sex: SYRIAN/FEMALE, Route: GAVAGE, Dose: 0, 14 MG/ML ((0.2 ML OF A SOLUTION IN ETHYL ACETATE/CORN OIL (1:2)) 1/WK FOR 22 WK (STUDY DURATION: LIFE SPAN), Tumor Site: Type of Lesion: LIVER: HEMANGIOSARCOMA, SPLEEN: HEMANGIOSARCOMA",active; positive
same,carcinogen call,"Species: HAMSTER, Strain/Sex: SYRIAN/MALE, Route: GAVAGE, Dose: 0, 14 MG/ML ((0.2 ML OF A SOLUTION IN ETHYL ACETATE/CORN OIL (1:2)) 1/WK FOR 22 WK (STUDY DURATION: 20 WK), Tumor Site: Type of Lesion: LIVER: HEMANGIOSARCOMA, PANCREAS: CARCINOMA OR ADENOMA, SPLEEN: HEMANGIOSARCOMA, FORESTOMACH: SQUAMOUS CELL CARCINOMA OR, Tumor Site: Type of Lesion: LIVER: HEMANGIOSARCOMA, PANCREAS: CARCINOMA OR ADENOMA, SPLEEN: HEMANGIOSARCOMA, FORESTOMACH: SQUAMOUS CELL CARCINOMA OR",active; positive
same,carcinogen call,"Species: RAT, Strain/Sex: F344/MALE, Route: GAVAGE, Dose: 0, 2.4 MG IN 0.2 ML ETHYL ACETATE/CORN OIL (1:1) 2/WK FOR 30 WK (TOTAL DOSE: 168 MG) (STUDY DURATION: 80 WK), Tumor Site: Type of Lesion: LUNG: CARCINOMA OR ADENOMA, THYROID: CARCINOMA OR ADENOMA",active; positive
